From US12377095B2, “Use of ligustrazine nitrone derivatives in treatment and prevention of diabetic complication diseases” (QINGDAO HAILAN PHARMACEUTICALS CO., LTD., priority 2019, dated 2025)

Key:
STZ-induced DKD rats [1] = assay: Body weight, water intake and food intake of STZ-induced DKD rats; assay type: in vivo, rat
Experimental: (§1) SD rats (200±10 g) were used as model animals, which were fasted for 12 h before injection. STZ was dissolved in citrate buffer at 1% concentration, and rats were fasted and intraperitoneally injected with 55 mg/kg STZ and placed in the cage, the rats being ensured with adequate water intake for 24 h. STZ injections need to be fast and complete within 10 minutes of injection. The normal control group was injected with an equal volume of pH 4.5 citric acid-sodium citrate buffer. The state of the animals (multiple drinking and polyuria) was observed. After 3 weeks of STZ injection, blood was collected from the tail vein, and fasting blood glucose ≥16.7 mmol/L was measured as the standard for diabetic nephropathy in rats.
(§2) DKD rats were randomly assigned to 6 groups and given with different drugs. After 6 weeks of administration, the experiment was terminated and the protective effect of the drug on DKD rats was observed.
The general condition and body weight changes after rat modeling were observed weekly. The general conditions include the activity, mental state, coat color, diet, water intake and urine volume of the rats. The amount of water and the amount of feed were recorded weekly.

STZ-induced DKD rats [2] = assay: Retinopathy of STZ-induced DKD rats; assay type: in vivo, rat; details: DKD rats after treatment, Table 1 (FIG. 5)
Experimental: as §1, §2
During the experiment, the retinopathy of rats was observed during daily administration, and the dates of retinopathy in different groups of rats were recorded.

STZ-induced DKD rats [3] = assay: Blood glucose and urine protein in STZ-induced DKD rats; assay type: in vivo, rat
Experimental: as §1, §2
During the experiment, the blood glucose of the rats was monitored after the completion of the modeling and after the completion of the administration, and urine protein was collected once at 24 hour.

STZ-induced DKD rats [4] = assay: Serum biochemical parameters of STZ-induced DKD rats; assay type: in vivo, rat; details: six weeks after administration, dose-dependent
Experimental: as §1, §2
Six weeks after the administration, the rats were anesthetized, and the blood was taken from the abdominal aorta, and, after standing for 1 hour, was centrifuged at 3000 rmp for 10 min and stored at −70° C. Serum levels of creatinine, urea nitrogen, cholesterol and triglycerides were measured using an automated biochemical analyzer.

STZ-induced DKD rats [5] = assay: Kidney index of STZ-induced DKD rats; assay type: in vivo, rat; details: after 6 weeks of administration
Experimental: as §1, §2
After 6 weeks of administration, the kidney tissue was uniformly separated by an autoclave surgical instrument, and washed with normal saline. After the filter paper was blotted, the fine balance was weighed, and then stored in a refrigerator at −80° C. for use. Kidney index (relative to kidney weight) is kidney weight (mg)/body weight (g)[…].

EPO mRNA = EPO mRNA by RT-PCR in CoCl2-induced HepG2 cell hypoxia model; details: hypoxia model caused by cobalt dichloride, concentration not given
STZ-induced DKD rats [6] = assay: HE staining of kidney tissue, STZ-induced SD rat DKD model; assay type: in vivo; details: 10 mg/kg i.g. once/day, 6 weeks
Experimental: (§3) Before the injection, the rats were fasted for 12 hours without water. After weighing, the rats were injected with 55 mg/kg STZ intraperitoneally (STZ needs to be injected quickly, and the injection was completed within 10 minutes), and then returned to the cage to ensure that the rats had sufficient drinking water for 24 hours. Rats were injected with an equal volume of citrate buffer (pH 4.5). After STZ injection for 3 weeks, blood was collected from the tail vein, and blood glucose ≥16.7 mmol/L was used as the criteria for the standard of the rats.
(§4) The route of administration is intragastric administration. TBN was administered twice a day (fixed at 9:00-10:00 am and 3:00-4:00 pm), and Losartan was administered once a day (fixed at 9:00-10:00 am) continuously for 6 weeks.
At the end of the experiment, kidney tissues were quickly separated, fixed with 4% paraformaldehyde and embedded in paraffin, serially sliced, 5 μm each, dried at 37° C. for 1 h, and then stained with hematoxylin and eosin (HE). The process is briefly as follows: paraffin sections were taken out of the 65° C. oven and immediately put in xylene to dewax and rehydrated with gradient alcohol, stained with hematoxylin staining solution for 10 minutes, and microscopically controlled alcohol differentiation with 1% hydrochloric acid was performed until the chromatin of the nucleus and the nucleus becomes clear; 1% ammonia water-ethanol solution is blue; 0.5% eosin Y-ethanol solution is stained for 3 min, and finally dehydrated routinely, mounted, and the tissue morphology changes are observed under a light microscope. […] The glomerular volume of rats in the DKD group of the Vehicle group increased, the mesangial area was diffusely widened, the mesangial cells were proliferated, the capillary loops were expanded, the mesangial matrix increased, and the glomerular capillary basement membrane was irregularly thickened. Renal pathological changes such as vacuole deformation, shedding of renal tubular epithelial cells and infiltration of a large number of inflammatory cells (FIG. 9A).

STZ-induced DKD rats [7] = assay: PAS staining, glomerular sclerosis index, STZ-induced DKD rats; assay type: in vivo, rat; details: all doses of TBN (10, 30, 60 mg/kg twice/day); Losartan 10 mg/kg once/day; 6 weeks; P<0.001 vs Vehicle
Experimental: as §3, §4
At the end of the experiment, kidney tissues were quickly separated, fixed with 4% paraformaldehyde and embedded in paraffin, serially sliced, 5 μm each, dried at 37° C. for 1 h, and then stained with PAS. The process is briefly as follows: paraffin sections are taken out of the 65° C. oven and immediately placed in xylene for deparaffinization and gradient alcohol rehydration, followed by periodic acid treatment for 5 min and Schiff treatment for 10 min, and then differentiation is performed with differentiation solution for 10 s. […]

STZ-induced DKD rats [8] = assay: Masson staining, interstitial fibrosis index, STZ-induced DKD rats; assay type: in vivo, rat; details: 10 mg/kg once/day, P<0.05 vs vehicle
Experimental: as §3, §4
At the end of the experiment, the kidney tissues were quickly separated, fixed with 4% paraformaldehyde and embedded in paraffin, serially sliced, 5 μm each, dried at 37° C. for 1 h, and then subjected to Masson staining. The process is briefly as follows: paraffin sections are taken out of the 65° C. oven and immediately put in xylene for dewaxing and gradient alcohol rehydration, according to the kit instructions, add reagent A (a mixture of equal amounts of A1 and A2) for dyeing for 8 min; then use Reagent B differentiates and reagent C turns blue; reagent D stains for 7 min; reagent E washes for 1 min; reagent F washes for 1 min; reagent G stains for 1 min; dehydrated with 95% ethanol and absolute ethanol, transparent xylene, sealed with neutral gum piece.

db/db mice [9] = assay: 24 h urine microalbumin in db/db mice; assay type: in vivo, mouse; details: 10 mg/kg once/day, 6 weeks, P<0.001
Excerpt: db/db mice are congenital obese type 2 DKD mice with spontaneous mutations in the leptin receptor (Leptin receptor, Lepr) due to a point mutation in the leptin receptor gene GT located on chromosome 4. The course of polyphagia, polyuria, diabetes and hyperglycemia is similar to that of humans, and it is currently the most widely used type 2 spontaneous animal model of DKD. The db/db mice have a series of complications with the aggravation of diabetes. The main pathological changes of renal tissue are the expansion of the glomerular mesangial interstitium, the thickening of the glomerular basement membrane, and the excessive accumulation of extracellular matrix. However, the glomerular mesangium of db/db mice changes relatively slowly, and the glomerular mesangium will not be dissolved or nodular glomerulosclerosis, and there is no progressive renal insufficiency. […]
db/db mice were tested for 24 h urine microalbumin in the 4th and 6th week after drug treatment. […] The absorbance value (OD value) was measured at 450 nm wavelength; the blank control hole was used for adjusting zero, the microalbuminuria standard concentration was used as the abscissa, the OD value as the ordinate, the standard curve regression equation was calculated, and on the basis of the regression equation and the sample's OD value, the concentration of the sample was determined.

db/db mice [10] = assay: Electron microscopy of kidney tissue in db/db mice; assay type: in vivo, mouse; details: 10 mg/kg, 6 weeks (TBN P<0.05; Losartan P<0.01)
Excerpt: db/db mice are congenital obese type 2 DKD mice with spontaneous mutations in the leptin receptor (Leptin receptor, Lepr) due to a point mutation in the leptin receptor gene GT located on chromosome 4. The course of polyphagia, polyuria, diabetes and hyperglycemia is similar to that of humans, and it is currently the most widely used type 2 spontaneous animal model of DKD. The db/db mice have a series of complications with the aggravation of diabetes. The main pathological changes of renal tissue are the expansion of the glomerular mesangial interstitium, the thickening of the glomerular basement membrane, and the excessive accumulation of extracellular matrix. However, the glomerular mesangium of db/db mice changes relatively slowly, and the glomerular mesangium will not be dissolved or nodular glomerulosclerosis, and there is no progressive renal insufficiency.
Six-week-old db/db mice were purchased, and start the administration after adaptive feeding for 1 week (i.e., 7-week-old). TBN is administered twice a day (fixed by starting from 9:00-10:00 am and 3:00-4:00 pm, with an interval of 6 hours), and the positive control drug Losartan was administered once a day (fixed at 9:00-10:00 am) for 6 weeks.
After the mice were executed, the renal cortex was quickly taken with sharp blade (performed on ice); fixed with 2.5% glutaraldehyde (pH 7.4) at 4° C. for 6 h; then fixed for 2 h in a stationary liquid having 1:1 of 0.2 mmol/L PBS and 2% osmic acid, and dehydrated with gradient acetone at 4° C., 10 min for each of 50%, 70%, 90% acetone, then dehydrated with 100% acetone at room temperature twice, each time 15 min; in 1:1 acetone and Epon812 epoxy resin embedded mixed liquid, soaked at room temperature for 30 min; then dipped through the pure furnishings overnight, the embedding agent was made enveloping into tissue blocks completely to replace the dehydrating agent; the samples were embedded in the embedder for ultra-thin slicing, placed at 35° C. for 12 h; placed at 45° C. for 12 h; placed at 60° C. for 48 h; placed in a 37° C. oven for 36 h, in a 60° C. oven for 36 h; 1.5 μm semi-slice was prepared with an ultra-thin slicer; positioning under optical microscope, a trapeter having a top area of about 1 mm^2 was shaped to prepare 60-70 nm thick ultra-thin slices; dyed in dark with acetate hydroxide liquid for 10 min, and dyed in lead-stained citrate for 10 min.

db/db mice [11] = assay: Urinary albumin/creatinine ratio in db/db mice, TBN alone and in combination; assay type: in vivo, mouse; details: TBN 30 mg/kg, Losartan 10 mg/kg, TBN+Losartan (FIG. 17)
Experimental: Grouping and dosing are the same as in Example 9. At the end of the experiment, 24 h urine samples were collected, antiseptic treatment was performed to all urine specimens with toluene, 24 h urine was centrifuged to remove precipitation and placed in a 1.5 mLEP tube and then placed in a refrigerator at −20° C. for later use, urinary albumin content was measured with ELISA kits, urine creatinine levels were detected by use of an automatic biochemical analyzer, and the ratio of both was calculated. The results as shown in FIG. 19 indicate that the ratio of urinary microalbumin to creatinine in DB/DB group was higher than that in wt/wt group, and the db/db mice 24 h urinary albumin creatinine ratio decreased in TBN group, losartan group and TBN-losartan combination group. Referring to this method, metformin (150 mg/kg, qd), and HIF-PH inhibitor roxadustat (10 mg/kg, once 2 every days) were given via oral administration, the combination groups of TBN with respectively metformin and roxadustat also reduce 24 h urinary albumin creatinine ratio.

SMILES	body weight (STZ-induced DKD rats [1]; STZ-induced diabetic nephropathy rats, FIG. 1a)	water intake (STZ-induced DKD rats [1]; vs model group, FIG. 1b)	food intake (STZ-induced DKD rats [1]; vs model group, FIG. 1c)	number of retinopathy (STZ-induced DKD rats [2])	time when retinopathy occurred (STZ-induced DKD rats [2])	urinary protein content in urine (STZ-induced DKD rats [3]; 24 hour urine, DKD rats)	blood glucose (STZ-induced DKD rats [3]; after 6 weeks of treatment)	serum cholesterol (STZ-induced DKD rats [4])	serum creatinine (STZ-induced DKD rats [4])	serum triglyceride (STZ-induced DKD rats [4])	serum urea nitrogen (STZ-induced DKD rats [4])	kidney index (STZ-induced DKD rats [5])	expression of EPO mRNA (EPO mRNA)	glomerular area (STZ-induced DKD rats [6])	renal tissue damage (HE) (STZ-induced DKD rats [6])	glomerular sclerosis index (STZ-induced DKD rats [7])	interstitial fibrosis index (STZ-induced DKD rats [8])	24 h urine microalbumin production (db/db mice [9])	thickness of the glomerular base film (db/db mice [10])	24 h urinary albumin creatinine ratio (db/db mice [11])
Cc1nc(/C=[N+](\[O-])C(C)(C)C)c(C)nc1/C=[N+](\[O-])C(C)(C)C [TN-2]	no effect	significantly lower	significantly lower	reduced	relatively delayed	significantly reduced	significantly decreased	significantly reduce	significantly reduce	significantly reduce	significantly reduce	significantly reduced	increase							
CCCCc1nc(Cl)c(CO)n1Cc1ccc(-c2ccccc2-c2nn[nH]n2)cc1 [Losartan, reference compound]														did not significantly reduce	improved	significantly reduce	significantly reduced	significantly reduced	significantly reduced	decreased
